The values that follow are results of earlier work, collected in patent publication US12084679B2, “Methods of in vitro differentiation of midbrain dopamine (mDA) neurons” (MEMORIAL SLOAN-KETTERING CANCER CENTER, priority 2015, dated 2024).

The structures appear in SMILES notation.

Data set [1] has as its system rodent GSK3β homologs.
In data set [2] the target is ALK6 (Homo sapiens, UniProt O00238).
The target of data set [3] is ALK3 (Homo sapiens, UniProt P36894).
Data set [4] concerns the target T1, ALK2 (Homo sapiens, UniProt Q04771).
T1 sequence (Q04771 21-509): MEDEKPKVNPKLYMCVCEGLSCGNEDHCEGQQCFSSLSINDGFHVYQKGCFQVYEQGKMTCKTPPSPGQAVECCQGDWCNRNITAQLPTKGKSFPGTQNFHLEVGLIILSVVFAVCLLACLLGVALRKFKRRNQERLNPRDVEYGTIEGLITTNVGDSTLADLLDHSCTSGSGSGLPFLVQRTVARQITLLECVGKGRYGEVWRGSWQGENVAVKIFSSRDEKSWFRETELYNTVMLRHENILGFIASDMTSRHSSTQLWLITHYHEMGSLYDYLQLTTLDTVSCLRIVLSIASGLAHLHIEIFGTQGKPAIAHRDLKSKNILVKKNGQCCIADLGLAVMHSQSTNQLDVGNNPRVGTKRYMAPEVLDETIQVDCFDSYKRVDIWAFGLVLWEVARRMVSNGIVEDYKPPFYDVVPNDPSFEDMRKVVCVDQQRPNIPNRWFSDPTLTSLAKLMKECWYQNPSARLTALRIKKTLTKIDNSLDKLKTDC

Chain of ALK6 (O00238 14-502): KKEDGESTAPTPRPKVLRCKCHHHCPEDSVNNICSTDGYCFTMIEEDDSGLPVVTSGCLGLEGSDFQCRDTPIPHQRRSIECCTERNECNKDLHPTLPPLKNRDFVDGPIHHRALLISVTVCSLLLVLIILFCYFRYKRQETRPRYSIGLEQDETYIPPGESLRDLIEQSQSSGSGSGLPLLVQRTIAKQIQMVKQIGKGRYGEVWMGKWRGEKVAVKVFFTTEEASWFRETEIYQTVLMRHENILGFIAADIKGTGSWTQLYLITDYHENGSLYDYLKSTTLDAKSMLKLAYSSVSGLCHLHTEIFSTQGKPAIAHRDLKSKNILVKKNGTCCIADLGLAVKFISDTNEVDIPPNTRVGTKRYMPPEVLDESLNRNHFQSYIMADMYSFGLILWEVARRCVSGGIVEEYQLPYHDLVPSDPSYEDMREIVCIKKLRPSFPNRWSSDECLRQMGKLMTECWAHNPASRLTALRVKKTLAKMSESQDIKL
Chain of ALK3 (P36894 24-532, species assumed): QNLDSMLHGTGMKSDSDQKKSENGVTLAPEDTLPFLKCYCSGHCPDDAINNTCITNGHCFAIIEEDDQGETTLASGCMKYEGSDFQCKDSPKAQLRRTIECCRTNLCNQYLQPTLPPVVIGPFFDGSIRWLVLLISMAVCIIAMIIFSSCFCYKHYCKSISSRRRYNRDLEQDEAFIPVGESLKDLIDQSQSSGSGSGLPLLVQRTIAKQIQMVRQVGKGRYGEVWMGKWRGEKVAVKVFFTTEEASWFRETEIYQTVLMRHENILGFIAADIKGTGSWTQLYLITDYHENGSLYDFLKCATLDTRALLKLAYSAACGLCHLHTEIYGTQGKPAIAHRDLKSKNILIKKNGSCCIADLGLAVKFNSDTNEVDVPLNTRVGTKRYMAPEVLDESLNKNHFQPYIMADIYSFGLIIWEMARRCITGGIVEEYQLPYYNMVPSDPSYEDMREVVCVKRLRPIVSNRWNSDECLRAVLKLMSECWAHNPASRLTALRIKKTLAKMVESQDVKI

For `Cc1c[nH]c(-c2cnc(NCCNc3ccc(C#N)cn3)nc2-c2ccc(Cl)cc2Cl)n1` [CHIR99021, 6-(2-(4-(2,4-dichlorophenyl)-5-(4-methyl-H-imidazol-2-yl)pyrimidin-2-ylamino)ethylamino)nicotinonitrile], the “IC50 values against rodent GSK3β homologs” value in data set [1] is reported as “nanomolar”.
With `c1ccc2c(-c3cnn4cc(-c5ccc(N6CCNCC6)cc5)cnc34)ccnc2c1` [LDN193189, 4-(6-(4-(piperazin-1-yl)phenyl)pyrazolo[1,5-a]pyrimidin-3-yl)quinoline], the “inhibitor of ALK6” value in data set [2] is reported as “highly potent”. Also, the “inhibitor of ALK3” value in data set [3] is recorded as “highly potent”. Moreover, in data set [4], the “inhibitor of ALK2” value is on record as “highly potent”.
